Data on ten compounds can be found in US4003589A, “Carbonless copying paper” (Kureha Kagaku Kogyo Kabushiki Kaisha, priority 1970, dated 1977).

The conditions of data set [1]: background; cited from earlier work.
Data set [2] can be described thus: Viscosity of the solvent. It is filed as physicochemical. Conditions: 100° F; Table 2.
Data set [3] can be described thus: Color of the solvent. Format: physicochemical. The following applies: Table 2, solvent.
The nature of data set [4]: Acute toxicity (LD50, per oral and cutaneous). Format: in vivo, Strain ICR-JCL Mice. The following applies: ICR-JCL mice. The source says: Used as test animal are Strain ICR-JCL Mice (Nippon Clea Co., Ltd.)

Turning to `ClC1C(Cl)C(Cl)C(Cl)C(Cl)C1Cl` (centres unmarked) [BHC], the “accumulation in the bodies of many animals” value (“accumulation in the bodies” for short) in data set [1] is reported as “accumulates”.

Turning to `Clc1ccc(C(c2ccc(Cl)cc2)C(Cl)(Cl)Cl)cc1` [DDT], the “accumulation in the bodies” value in data set [1] was “accumulates”.

butylnaphthalene [Butyl-naphthalene]: the Viscosity in data set [2] was 4.2 cst. Also, in data set [3], the Color result is “None”.

As to diethylnaphthalene [Diethyl-], the Viscosity in data set [2] came to 3.6 cst. Further, the Color entry in data set [3] was “None”.

As for “dimethylpropylnaphthalene [Dimethyl propyl]”, the Viscosity in data set [2] is 5.1 cst. Also, the Color entry in data set [3] is on record as “None”.

For the compound dipropylnaphthalene, in data set [4], the “LD50 Cutaneous” value is at least 30 mL/kg and the “LD50 Per Oral” value turned out to be 9.5 mL/kg. Also, in data set [2], the Viscosity is 8.5 cst. Also, the Color entry in data set [3] is recorded as “None”.

In data set [2], ethylpropylnaphthalene [Ethyl propyl] gave a Viscosity of 5.2 cst. Besides, the Color result in data set [3] is “None”.

methylbutylnaphthalene [Methyl Butyl] came in with a Viscosity in data set [2] of 5.0 cst. For the same compound, in data set [3], the Color result is “None”.

For the compound methylpropylnaphthalene [Methyl propyl], in data set [2], the Viscosity was found to be 4.0 cst. In addition, in data set [3], the Color entry was “None”.

In the case of “polychlorobiphenyl [PCB, reference compound]”, in data set [4], the “LD50 Cutaneous” value turned out to be 1.25 mL/kg and the “LD50 Per Oral” value came to 1.7 mL/kg. Further, the Color entry in data set [3] is “None”. In data set [1], the “accumulation in the bodies” value is given as “accumulates” and the biodegradability result is reported as “low biodegradability”.
